Patent US11643385B2, “Polymorphic forms of RAD1901-2HCl” (RADIUS PHARMACEUTICALS, INC., priority 2018, dated 2023)
“Also recorded” adds a separate entry of the source.

Tests used:
[1] = Storage at elevated temperature/humidity, solid form checked by XRPD; assay type: physicochemical; details: for XRPD after storage at 25° C./97% RH for 1 week (solid form) / XRPD after storage at 40° C./75% RH for 1 week (solid form): 1 week (7 days); for Form change on exposure to high RH (>90%): e.g. 7 days / prolonged exposure
Procedure: Samples 1 and 2 were characterized by XRPD at various conditions. XRPD patterns were collected for the samples at ambient condition as the samples were provided; at variable temperature (VT-XRPD); at variable humidity (VH-XRPD); after the samples were exposed to 40° C./75% RH for 1 week and 25° C./97% RH for 1 week, respectively; and after a GVS measurement wherein the samples were exposed to 0-90% RH. Samples 1 and 2 were also characterized by ^1H NMR, TGA, DSC, KF, IC, GVS (exposed to 0-90% RH), PLM, SEM, and HPLC (Table 5). […]

[2] = Gravimetric Vapour Sorption (GVS) with XRPD post-GVS; assay type: physicochemical; details: for GVS total mass change between 0 and 90% RH: 0-90% RH (Table 17); for XRPD post GVS (uptake 0-90% RH): after GVS 0-90% RH; for Form change at high RH (>90%) in GVS experiments: above 90% RH
Procedure: Sorption isotherms were obtained using a SMS DVS Intrinsic moisture sorption analyzer, controlled by DVS Intrinsic Control software v1.0.1.2 (or v 1.0.1.3). The sample temperature was maintained at 25° C. by the instrument controls. The humidity was controlled by mixing streams of dry and wet nitrogen, with a total flow rate of 200 ml/min. The relative humidity was measured by a calibrated Rotronic probe (dynamic range of 1.0-100% RH), located near the sample. The weight change, (mass relaxation) of the sample as a function of % RH was constantly monitored by the microbalance (accuracy ±0.005 mg).
A sample (e.g., 20 mg) was placed in a tared mesh stainless steel basket under ambient conditions. The sample was loaded and unloaded at 40% RH and 25° C. (typical room conditions). A moisture sorption isotherm was performed as outlined below (2 scans giving 1 complete cycle). Standard isotherms were performed at 25° C. at 10% RH intervals over a 0-90% RH range. Data analysis was carried out using Microsoft Excel using DVS Analysis Suite v6.2 (or 6.1 or 6.0).
In a cycle of 2 scans, the first scan was performed with adsorption of 40-90% RH, followed by a second scan with desorption of 90-0% RH and adsorption of 0-40% RH, with intervals of 10% RH, at 25° C. with stability dm/dt of 0.002% ° C./min. The sorption time was 6 hr time out.
The sample was recovered after completion of the isotherm and re-analyzed by XRPD. Custom moisture sorption methods were also performed at 25° C. at fixed % RH intervals over a 0-95% RH range, with the purpose to fully understand the sorption/desorption behavior of the compound under elevated conditions.
To further explore the humidity behavior of Sample 1 (Form 1) upon exposure to high RH (>90%), custom GVS experiments were designed and carried out. Initially, the sample was treated by holding at 90 and then 95% RH for ˜12 hours to see if hydrate formation could be observed (HighRH method of Steps 1 and 2 of Table 2, FIGS. 6C-6D).
To test the stability of the hydrated state, GVS method HighRH_Desorp_3 was designed with a desorption step and subsequent adsorption (see Table 2 with steps 1-4, FIGS. 6E-6F).
Finally, to ensure complete conversion to the anhydrous and hydrated forms, a GVS experiment was designed to increase both the length of the desorption step at 0% RH, and the adsorption step at 95% RH, respectively (Table 3). Based on the weight stabilization observed in the kinetic plots for Sample 1 in HighRH and HighRH_Desorp_3 methods discussed above (FIGS. 6D and 6F), a holding time of 800 mins at 0% RH and 1600 mins at 95% RH were chosen. A double cycle was also recorded for this experiment to observe whether the sample would return to Form 1 or form a mixed anhydrous/hydrated species (see Table 3, FIGS. 6G-6H).

[3] = Storage at elevated temperature/humidity, solid form checked by XRPD; assay type: physicochemical
estrogen receptor (ER) = molecular target: T1, estrogen receptor (ER) (Homo sapiens, UniProt P03372); details: cited from earlier work
T1 sequence (P03372 1-595): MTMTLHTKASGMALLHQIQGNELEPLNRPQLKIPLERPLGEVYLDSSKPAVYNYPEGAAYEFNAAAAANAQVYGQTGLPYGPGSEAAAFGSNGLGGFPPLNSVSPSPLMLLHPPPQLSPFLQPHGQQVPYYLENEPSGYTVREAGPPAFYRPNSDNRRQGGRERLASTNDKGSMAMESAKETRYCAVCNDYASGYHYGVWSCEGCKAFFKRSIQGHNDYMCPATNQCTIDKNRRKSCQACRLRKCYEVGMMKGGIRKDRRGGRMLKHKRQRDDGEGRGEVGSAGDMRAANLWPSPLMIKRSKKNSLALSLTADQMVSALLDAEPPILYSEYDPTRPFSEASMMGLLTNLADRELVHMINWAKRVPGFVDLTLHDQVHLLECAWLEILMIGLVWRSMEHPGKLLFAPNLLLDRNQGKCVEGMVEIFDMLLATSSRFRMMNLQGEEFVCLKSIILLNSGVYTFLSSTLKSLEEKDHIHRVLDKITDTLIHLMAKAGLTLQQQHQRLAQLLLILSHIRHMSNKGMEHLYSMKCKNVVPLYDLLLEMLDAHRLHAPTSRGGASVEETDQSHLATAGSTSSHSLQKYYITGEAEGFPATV

[4] = Variable humidity XRPD (VH-XRPD); assay type: physicochemical
Procedure: Samples run under non-ambient conditions were prepared by gently packing into a cavity, cut into a silicon wafer to obtain a flat surface and mounted onto a humidity stage with an Ansyco controller and humidity sensor positioned directly next to the sample holder. The data were collected at 298.15 K with water temperature of 35.0° C., in an angular range of 3 to 31° 2θ, with a step size of 0.025° 2θ, a collection time of 2.0 sec/step, and a collection time at each % RH was 41 min 28 sec.
X-Ray Powder Diffraction (XRPD) patterns were collected at variable humidity values from 0 to 95% RH, based upon the humidity behavior of each compound observed during GVS experiments (described herein). For each Variable Humidity X-Ray Powder Diffraction (VH-XRPD) experiment performed, the % RH values selected are provided alongside the relevant experimental result. Full tables of detailing the % RH value at each collection point and the associated delay time at each value are provided in Tables 10-12.
To fully characterize the polymorphic behavior of Samples 1 and 2 at variable humidity, and to collect reference XRPD patterns for the ‘pure’ anhydrous Form 1 and Form 2 material, and ‘pure’ hydrated Form 3 material, Variable Humidity (VH) XRPD experiments were conducted on Samples 1 and 2. Initially, VH-XRPD experiments were conducted using Sample 1, and XRPD diffractograms were collected at selected humidity values, in line with those collected during GVS experiments (see FIGS. 6E-6F). XRPD diffractograms were collected initially at ambient RH, then collected over 24 hours at ˜95% RH and finally collected during desorption steps to 0% RH and over 10 hours at 0% RH (see FIG. 4C).

[5] = Solubility assessment and polymorph screen on Sample 1 (Form 1) of RAD1901-2HCl in 24 solvent systems; assay type: physicochemical
Procedure: Solubility assessment was carried out on the Sample 1 of RAD1901-2HCl (majorly Form 1 shown by XRPD) in 24 solvent systems in HPLC vials (sample IDs: A1 to A24). RAD1901-2HCl (25 mg) was treated with increasing volumes of solvent until the material fully dissolved or until a maximum of 60 vol had been used (Table 13).
After each addition of solvent, the system was stirred for 5 to 10 minutes at 25° C., then shaken at 50° C. for 5 to 10 minutes, and observations made. Samples were allowed to stand at room temperature for 5 min before the addition of a new aliquot of solvent. After the assessment was completed, the suspensions obtained were matured (maturation) and the clear solutions were cooled (cooling) and slowly evaporated (evaporation) as described below. All solids recovered from maturation, cooling and evaporation experiments were analyzed by high resolution XRPD.
The suspensions obtained during the solubility assessment were matured by shaken in a maturation chamber between 50° C. and RT (8 hr per cycle) for up to 5 days. Then the mixture was allowed to stand at room temperature for 10 minutes. The resulting solids were filtered and air dried and analyzed by XRPD. The clear solutions obtained during maturation were evaporated in ambient conditions and the resulting residues were analyzed by XRPD.
The clear solutions obtained during the course of the solubility assessment were cooled on a Polar Bear device from 50° C. to 5° C. at 0.1° C./min. Solids obtained upon cooling were recovered from the vials, air dried and analyzed by XRPD. If no solid was obtained, the solutions were evaporated slowly through a needle inserted into the septum cap of the vial until a solid appeared at ambient conditions and the resulting solids were filtered, air dried and analyzed by XRPD.

[6] = Variable temperature XRPD (VT-XRPD); assay type: physicochemical
Procedure: Samples run under non-ambient conditions were mounted on a silicon wafer with a heat-conducting compound. The sample was then heated from ambient to the appropriate temperature at 20° C./min and subsequently held isothermally for 1 minute before data collection was initiated.
Variable Temperature XRPD (VT-XRPD) experiments were therefore conducted to examine the thermal behavior of Sample 2 observed by DSC (see FIG. 9B). […] (blue) as Form 1 material (FIG. 5D).

CCNCCc1ccc(CN(CC)c2cc(OC)ccc2[C@@H]2CCc3cc(O)ccc3C2)cc1.Cl.Cl [Form 1B]
XRPD after storage at 25° C./97% RH for 1 week (solid form) ([1]; listed as Pattern B): Unchanged post storage at both conditions | XRPD after storage at 40° C./75% RH for 1 week (solid form) ([1]; listed as Pattern B): Unchanged post storage at both conditions | GVS total mass change between 0 and 90% RH ([2]; listed as Pattern B): Total change in mass of 1.4% wt. between 0 and 90% RH, | XRPD post GVS (uptake 0-90% RH) ([2]; 25° C., listed as Pattern B): no hysteresis. XRPD post-GVS is consistent with Pattern

CCNCCc1ccc(CN(CC)c2cc(OC)ccc2[C@@H]2CCc3cc(O)ccc3C2)cc1.Cl.Cl [Form 1]
XRPD after storage at 25° C./97% RH for 1 week (solid form) [1]: converted to Form 3; also recorded: conversion towards a hydrated state Form 3; also recorded: Converts to Form 3 at 25° C./ | XRPD after storage at 40° C./75% RH for 1 week (solid form) [1]: stable; also recorded: Remains as Form 1 at 40° C./ | Form change on exposure to high RH (>90%) [1]: irreversibly converted to the hydrate Form 3 | Stability of the form (heat/humidity), in words ([1]; summary of characterizations of Samples 1 and 2): stable | GVS: reversibility of uptake and loss ([2]; 0-90% RH): exhibits reversible uptake and loss, | Hygroscopicity (GVS), in words ([2]; 0-90% RH): lower hygroscopicity; also recorded: relatively non-hygroscopic; also recorded: low hygroscopicity; also recorded: Sample is slightly hygroscopic, but | GVS total mass change between 0 and 90% RH [2]: Total mass change of 1.7% wt. | Form change at high RH (>90%) in GVS experiments [2]: started converting to the hydrate Form 3 | XRPD post GVS (uptake 0-90% RH) ([2]; 25° C.): unchanged XRPD pattern; also recorded: No changes; also recorded: Form 1

CCNCCc1ccc(CN(CC)c2cc(OC)ccc2[C@@H]2CCc3cc(O)ccc3C2)cc1.Cl.Cl [Form 2]
Form obtained on exposure to >40% RH for 7 days ([1]; >40% RH, 7 days): Form 3 | Hygroscopicity (GVS), in words ([2]; 0-90% RH): hygroscopic

CCNCCc1ccc(CN(CC)c2cc(OC)ccc2[C@@H]2CCc3cc(O)ccc3C2)cc1.Cl.Cl [Lyophilization in water]
XRPD post storage at 25° C./97% RH (10 days) ([3]; 25° C./97% RH): Consistent with Form 3 | XRPD post storage at 40° C./75% RH (10 days) ([3]; 40° C./75% RH): Consistent with Form 3

CCNCCc1ccc(CN(CC)c2cc(OC)ccc2[C@@H]2CCc3cc(O)ccc3C2)cc1 [RAD1901]
Binding selectivity for the estrogen receptor (ER), in words (estrogen receptor (ER)): good selectivity

CCNCCc1ccc(CN(CC)c2cc(OC)ccc2[C@@H]2CCc3cc(O)ccc3C2)cc1.Cl.Cl [Sample 1]
XRPD after storage at 25° C./97% RH for 1 week (solid form) [1]: Form 3 | XRPD after storage at 40° C./75% RH for 1 week (solid form) [1]: Form 1 | Form change on exposure to high RH (>90%) [1]: converted to the hydrate Form 3 | GVS: reversibility of uptake and loss ([2]; 0-90% RH): (reversible) | GVS uptake 0-90% RH ([2]; 0-90% RH, 25° C.): 1.8% wt. | GVS mass uptake when held at 95% RH for ~12 hours (HighRH method) ([2]; 95% RH, ~12 hours): 5-6 % wt. | Form change at high RH (>90%) in GVS experiments [2]: irreversibly converted to a hydrate (Form 3) | XRPD post GVS (uptake 0-90% RH) ([2]; 25° C.): Form 1 | XRPD post-GVS (HighRH_DoubleCycle_2 method) ([2]; double cycle, 1600 mins at 95% RH, 800 mins at 0% RH): Form 3 | XRPD post-GVS (HighRH method) ([2]; held at 90 then 95% RH for ~12 hours): mixture of states or incomplete conversion | XRPD post-GVS (HighRH_Desorp_3 method) ([2]; single cycle to 95% RH, desorption to 0% RH, adsorption to 40% RH): mixture of Form 1 and Form 3 | VH-XRPD: form change over 24 hr at ~95% RH ([4]; ~95% RH, 24 hr): unable to show a direct conversion; also recorded: Form 3 over | Solubility in alcohols, esters, and hydrocarbon solvents, in words ([5]; alcohols, esters, hydrocarbon solvents): low solubility | Solubility in water, in words ([5]; water): highly soluble | Solubility in water and t-butanol/water (1:1), in words ([5]; water, t-butanol/water (1:1)): high solubility

CCNCCc1ccc(CN(CC)c2cc(OC)ccc2[C@@H]2CCc3cc(O)ccc3C2)cc1.Cl.Cl [Sample 2]
XRPD after storage at 25° C./97% RH for 1 week (solid form) [1]: Form 3 | XRPD after storage at 40° C./75% RH for 1 week (solid form) [1]: Form 3 | Hygroscopicity (GVS), in words ([2]; 0-90% RH): hygroscopic | XRPD post GVS (uptake 0-90% RH) ([2]; 25° C.): mixture of Form 2 and Form 3 | VH-XRPD: form at 0% RH ([4]; 0% RH): 5E). Form 2 at 0% | VH-XRPD: form change at >90% RH ([4]; >90% RH (92-93% RH)): conversion toward the hydrated state; also recorded: Conversion to Form 3 | VT-XRPD: form after melt and recrystallization above 175° C. ([6]; heated above 175° C.): converted to Form 1; also recorded: recrystallized as Form 1 | VT-XRPD: form obtained on heating to 100° C. ([6]; heating to 100° C.): converted to Form 2; also recorded: Anhydrous Form 2
